The values that follow come from patent US8529874B2, “Peptide imaging agents” (GE Healthcare AS, priority 2007, dated 2013).

Bridge positions count the residues as written; N and C are the ends.

Assay [1] addresses T1, mouse c-Met/Fc chimera (Mus musculus, UniProt P16056).
T1 construct: purchased R&D Systems
In words: In vitro fluorescence polarisation assay, binding to mouse c-Met. The settings on record: dye-labelled peptide 20 nM, c-Met/Fc 0-150 nM (tested range). On the procedure: The principle of the fluorescence polarisation method can briefly be described as follows:
Monochromatic light passes through a horizontal polarizing filter and excites fluorescent molecules in the sample. Only those molecules that oriented properly in the vertically polarized plane adsorb light, become excited, and subsequently emit light. The emitted light is measured in both horizontal and vertical planes. The anistropy value (A), is the ratio between the light intensities following the equation
The fluorescence anistropy measurements were performed in 384-well microplates in a volume of 10 μL in binding buffer (PBS, 0.01% Tween-20, pH 7.5) using a Tecan Safire fluorescence polarisation plate reader (Tecan, US) at ex646/em678 nm. The concentration of dye-labelled peptide was held constant (20 nM) and the concentrations of the human or mouse c-Met/Fc chimera (R&D Systems) or Semaphorin 6A (R&D Systems) were varied from 0-150 nM. Binding mixtures were equilibrated in the microplate for 10 min at 30° C. The observed change in anistropy was fit to the equation
[formula] where robs is the observed anistropy, rfree is the anistropy of the free peptide, rbound is the anistropy of the bound peptide, KD is the dissociation constant, cMet is the total c-Met concentration, and P is the total dye-labelled peptide concentration. […]
On the technique in general: Fluorescence polarisation rises when a labelled molecule tumbles more slowly, as on binding a larger partner.

In assay [2] the test system is HCT-15 tumours. Nature of the assay: In vivo optical imaging of HCT-15 tumour slice against normal colon. Also on record: species or system BALB c/A nude (Bom) mice. From the text: 54 Female BALB c/A nude (Bom) mice were used in the study. The use of the animals was approved by the local ethics committee. BALB c/A nude is an inbred immunocompromised mouse strain with a high take rate for human tumours as compared to other nude mice strains. The mice were 4 weeks old upon arrival and with a body weight of approx. 20 grams at the start of the study. The animals were housed in individually ventilated cages (IVC, Scanbur BK) with HEPA filtered air. The animals had ad libitum access to “Rat and Mouse nr. 3 Breeding” diet (Scanbur BK) and tap water acidified by addition of HCl to a molar concentration of 1 mM (pH 3.0).
The colon cancer cell HCT-15 is derived from human colon carcinomas and is reported to express c-Met according to Zeng et al [Clin. Exp. Metastasis, 21, 409-417. (2004)]. The cell line was proven to be tumorigenic when inoculated subcutaneously into nude mice [Flatmark et al, Eur. J. Cancer 40, 1593-1598 (2004)].
HCT-15 cells were grown and prepared for subcutaneous inoculation in RPMI (Sigma Cat# R0883) with 10% serum and penicillin/streptomycin. Stocks were made at passage number four (P4) and frozen down for storage in liquid nitrogen at 3×10^7 cells/vial in the culture media containing 5% DMSO. On the day of the transplantation, the cells were thawed quickly in a 37° C. water bath (approx. 2 min), washed and resuspended in PBS/2% serum (centrifugation at 1200 rpm for 10 min). Thorough mixing of cells in the vials was ensured every time cells were aspirated into the dosing syringe. Volumes of 0.1 ml of cell suspension were injected s.c. at the shoulder and at the back using a fine bore needle (25 G) while the animals were under light gas anaesthesia. The animals were then returned to their cages and the tumours were allowed to grow for 13-17 days. […]
Imaging was performed through a clinical laparoscope adapted to use a light source to excite the reporter and a filtering system to extract the fluorescence component. […] The images were visually scored using the standard scoring system employed for receiver operating characteristic analysis.

T1 sequence (P16056 with tags, fused parts or gaps limits assumed): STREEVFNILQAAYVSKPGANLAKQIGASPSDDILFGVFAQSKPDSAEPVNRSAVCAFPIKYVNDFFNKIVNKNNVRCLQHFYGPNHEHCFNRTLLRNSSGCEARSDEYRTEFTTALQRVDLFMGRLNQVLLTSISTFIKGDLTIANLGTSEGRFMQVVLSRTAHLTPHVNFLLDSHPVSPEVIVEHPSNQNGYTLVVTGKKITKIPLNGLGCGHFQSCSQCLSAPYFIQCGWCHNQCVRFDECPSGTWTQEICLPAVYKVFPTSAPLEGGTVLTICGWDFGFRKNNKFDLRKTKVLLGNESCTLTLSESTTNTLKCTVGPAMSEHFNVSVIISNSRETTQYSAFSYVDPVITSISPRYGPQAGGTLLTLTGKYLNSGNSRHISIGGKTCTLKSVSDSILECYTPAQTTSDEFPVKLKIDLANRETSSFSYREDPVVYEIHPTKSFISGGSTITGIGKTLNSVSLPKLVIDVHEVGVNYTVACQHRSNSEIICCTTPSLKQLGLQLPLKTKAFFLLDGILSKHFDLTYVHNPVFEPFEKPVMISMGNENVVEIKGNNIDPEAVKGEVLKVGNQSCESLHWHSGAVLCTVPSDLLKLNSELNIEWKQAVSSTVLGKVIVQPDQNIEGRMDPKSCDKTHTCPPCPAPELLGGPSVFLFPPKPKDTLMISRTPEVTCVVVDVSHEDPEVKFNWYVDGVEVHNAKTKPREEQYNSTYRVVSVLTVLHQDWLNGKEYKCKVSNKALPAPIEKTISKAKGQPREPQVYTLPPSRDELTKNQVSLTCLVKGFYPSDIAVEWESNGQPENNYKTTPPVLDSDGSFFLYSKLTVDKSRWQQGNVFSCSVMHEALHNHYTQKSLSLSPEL

As for “Ac-Ala-Gly-Ser-Cys-Tyr-Cys-Ser-Gly-Pro-Pro-Arg-Phe-Glu-Cys-Trp-Cys-Tyr-Glu-Thr-Glu-Gly-Thr-Gly-Gly-Gly-Lys(Cy5)-NH2 (Ac-AGSCYCSGPPRFECWCYETEGTGGGK(Cy5)-NH2; also: two disulfides, pairing not given here) [Compound 3]”, the “binding to mouse c-Met (in words)” value in assay [1] is “no binding”.

Regarding “Ac-TGECTCPYWEFRPCECGSYSGAGGGK(ε-Cy5**)-NH2 (Ac-TGECTCPYWEFRPCECGSYSGAGGGK-NH2; disulfide 6-14; disulfide 4-16 (inferred); not fully specified (residue 26); printed as Ac-TGECTCPYWEFRPCECGSYSGAGGGK(ε-Cy5**)-NH2) [Compound 7, negative control; scrambled control peptide with the same dye as Compound 5]”, the “visual identification of tumour against background” value in assay [2] (1 nmol per animal i.v., HCT-15 tumour slice vs normal colon) is on record as “nothing was discernible against background”. In assay [2] (1 nmol per animal i.v., HCT-15 tumour slice vs normal colon, ex vivo, 635 nm excitation), the “tumour to normal ratio” value stood at 1.04. In addition, the “tumour: background ratios (summary in words)” value in assay [2] (animal model of cancer, Example 7) was “did not discriminate between tumour and background”.
